From US6500466B2, “Chlorhexidine formulations, new chlorhexidine salts, solutions containing these and their use” (Degussa AG, priority 1998, dated 2002)
One block for each compound: values may come before it.

Key:
[1] = Storage trials: production of p-chloroaniline in aqueous 20 wt. % solutions and in powdered mixtures (FIG. 1, FIG. 2); type: physicochemical; conditions: aqueous solution stored at constant 40° C.
From the text: The composition and appearance of gluconate solutions are subject to the requirements of the European Pharmacopoeia and the American Pharmacopoeia. One of the purity requirements is a concentration of p-chloroaniline limited to 500 ppm. In a reaction which is the reverse of forming the chlorhexidine base from hexamethylenebicyanoguanidine and p-chloroaniline, p-chloroaniline can be reversibly eliminated from these solutions on dissolving the base in D(+) glucono-6-lactone, the internal ester of D(+)-gluconic acid, wherein the solutions discolor and become increasingly yellow to brown. Decomposition of chlorhexidine solutions depends on the pH of the solution and in particular on the storage temperature. Tests show (FIG. 1), that the permissible p-chloroaniline values are exceeded after about one month when stored at a constant temperature of 40° C. Solutions of CHD-gluconate which are stable over the long-term have not hitherto been disclosed. The use of these solutions in regions with a tropical climate is therefore a problem which has not hitherto been resolved satisfactorily. Therefore, there is a need for chlorhexidine salt solutions which tend to decompose to only a small extent when used under extreme climatic conditions, in particular at high temperatures.
The problem of long-term p-chloroaniline production cannot be solved by the invention of new anions. […]

[2] = background statement; cited from earlier work
[3] = Light sensitivity and stability compared with the gluconate; type: physicochemical

- time after which permissible p-chloroaniline values (500 ppm) are exceeded [1]: about one
Compound: N=C(NCCCCCCNC(=N)NC(=N)Nc1ccc(Cl)cc1)NC(=N)Nc1ccc(Cl)cc1.O=C(O)[C@H](O)[C@@H](O)[C@H](O)[C@H](O)CO.O=C(O)[C@H](O)[C@@H](O)[C@H](O)[C@H](O)CO [Chlorhexidine digluconate]

Compound: [H]/N=C(\N/C(=N/[H])NCCCCCCNC(=N)NC(=N)Nc1ccc(Cl)cc1)Nc1ccc(Cl)cc1 [Chlorhexidine, 1,1′-hexamethylene-bis-[5,4-chlorophenyl]-biguanide]
- solubility in water [2]: very low solubility in water

- light sensitivity relative to the gluconate [3]: more light sensitive
- stability relative to the gluconate [3]: more unstable than the gluconate
Compound: chlorhexidine ascorbate
